The experiment deals with Genome polyprotein (Hepatitis C virus genotype 1a (isolate H77), UniProt P27958). The experiment is described as follows: Continuous Spectrophotometric Assay. As to conditions: pH 6.5; 30 °C. The procedure: Proteolytic cleavage of the ester linkage between the Nva (L-norvaline) and the chromophore (PAP) was monitored for change in absorbance at 370 nm. Initial velocities were determined using linear regression and kinetic constants were obtained by fitting the data to the Michaelis-Menten equation.

Numbered stars: 1 amine (or outer) side, 2 acyl side, 3 side chain; on linkers, the order of the positions; unused ones are H or OH. Square brackets hold non-standard residues; d marks the D form. Peptide text beside a SMILES is read from it. * marks the point of attachment. Isobutyloxycarbonyl = CC(C)COC(=O)*; X1 = CCCC(N[*:1])C(=O)C(=O)[*:2]

Sequence of Genome polyprotein (P27958 1027-1657 limits assumed): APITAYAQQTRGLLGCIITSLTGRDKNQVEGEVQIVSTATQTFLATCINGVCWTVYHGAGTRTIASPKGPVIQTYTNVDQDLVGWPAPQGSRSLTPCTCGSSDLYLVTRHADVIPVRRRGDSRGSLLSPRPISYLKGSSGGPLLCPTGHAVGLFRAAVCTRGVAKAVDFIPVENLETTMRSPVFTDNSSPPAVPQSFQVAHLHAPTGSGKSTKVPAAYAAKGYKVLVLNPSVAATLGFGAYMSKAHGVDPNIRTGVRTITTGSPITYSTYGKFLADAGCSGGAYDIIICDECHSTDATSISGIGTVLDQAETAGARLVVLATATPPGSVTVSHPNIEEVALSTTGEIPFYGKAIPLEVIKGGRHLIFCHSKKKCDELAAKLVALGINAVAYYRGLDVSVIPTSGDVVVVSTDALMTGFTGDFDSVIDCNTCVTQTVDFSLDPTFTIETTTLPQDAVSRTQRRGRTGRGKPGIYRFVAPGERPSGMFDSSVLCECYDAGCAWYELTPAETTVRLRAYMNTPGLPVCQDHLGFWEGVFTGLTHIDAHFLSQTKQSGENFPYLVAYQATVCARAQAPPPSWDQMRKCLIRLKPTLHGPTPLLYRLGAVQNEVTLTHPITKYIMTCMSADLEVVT

As to `CCCC(NC(=O)[C@@H]1CCCN1C(=O)[C@@H](NC(=O)OCC(C)C)C(C)C)C(=O)C(=O)NCC(=O)N[C@@H](CC(=O)O)C(=O)O` (stereo partly drawn) [1,4-disodium (2S)-2-[2-(3-{[(2S)-1-[(2S)-3-methyl-2-{[(2-methylpropoxy)carbonyl]amino}butanoyl]pyrrolidin-2-yl]formamido}-2-oxohexanamido)acetamido]butanedioate] (Isobutyloxycarbonyl-VP[X1]GD-OH), the Ki – broadly, the equilibrium dissociation constant of an inhibitor or competing ligand from its target – is > 100 µM. For `CCCC(NC(=O)[C@@H]1CCCN1C(=O)[C@@H](NC(=O)OCC(C)C)C(C)C)C(=O)C(=O)NCC(=O)N[C@@H](CCC(=O)O)C(=O)O` (stereo partly drawn) [1,5-dilithio (2S)-2-[2-(3-{[(2S)-1-[(2S)-3-methyl-2-{[(2-methylpropoxy)carbonyl]amino}butanoyl]pyrrolidin-2-yl]formamido}-2-oxohexanamido)acetamido]pentanedioate] (Isobutyloxycarbonyl-VP[X1]GE-OH), the Ki is > 100 µM.
